The source of these data is patent publication US7321002B2, “Chiral integrin modulators and methods of use thereof” (Billings Pharmaceuticals, Inc., priority 2000, dated 2008).

Assay [1] relates to HIV-1RF-infected H9 cells. As to the kind of experiment: HIV-induced syncytium formation: fusion of intact H9 cells with HIV-1RF-infected H9 cells. It is filed as cell-based. As to conditions: H9 + HIV-1RF-infected H9 cells, 6 to 15 hours at 37° C., FIG. 1. The text has this: For all the curves, the effect of ajoene enantiomers and enantiomer mixtures on the fusion of cultured, intact H9 cells with HIV-1RF-infected H9 cells is disclosed. The vertical graph axis expresses the maximum amount of syncytia formed in the absence of the compounds (100 percent), while the points on the curves represent percentages of such an amount of syncytia formed in the presence of varying concentrations of the compounds and compound mixtures (micromoles per liter).
Another such method is based on the inhibition of HIV-mediated syncytium formation, a phenomenon known to depend on the functional activity of integrins. The purified Z enantiomers, racemic E-ajoene, and the original 3:1 mixture of racemic Z- and E-ajoenes were taken up in DMSO at a concentration of 10 mg/mL. Dilutions were made in RPMI 1640 medium containing 10% fetal calf serum and 10 mM HEPES (cRPMW). HIV-1RF-infected H9 cells and uninfected H9 cells were washed with cRPMI and resuspended in cRPMI at a density of 4×10^6 per mL. Uninfected cells (50 μL) were mixed with serial dilutions of the compounds (100 μL) and incubated at 37° C. for30 minutes before adding and mixing 50 μL of infected H9 cells. The plates were incubated at 37° C. for 6 to 15 hours before scoring syncytium formation.
The purified enantiomers were taken up in DMSO at a concentration of 10 mg/mL. Dilutions were made in RPMI 1640 medium containing 10% fetal calf serum and 10 mM HEPES (cRPMI). H9 cells (ATCC, Rockville, Md.) infected with HIV-1RF, (NIH AIDS Repository, Rockville, Md.) and uninfected H9 cells were washed with cRPMI and resuspended in cRPMI at a density of 4×10^6 per mL. Uninfected cells (50 μL) were mixed with serial dilutions of the compounds (100 μL) and incubated at 37° C. for 30 min before adding and mixing 50 μL of infected H9 cells. The plates were incubated at 37° C. for 6 to 15 hours before scoring syncytium formation.

The target in assay [2] is T1, VLA-4 (Homo sapiens, UniProt P05556+P13612).
T1 construct: host or cells: PM1 cells (VLA-4); COS7 cells secrete the VCAM/IgG ligand
T1 sequence (P13612 34-1032): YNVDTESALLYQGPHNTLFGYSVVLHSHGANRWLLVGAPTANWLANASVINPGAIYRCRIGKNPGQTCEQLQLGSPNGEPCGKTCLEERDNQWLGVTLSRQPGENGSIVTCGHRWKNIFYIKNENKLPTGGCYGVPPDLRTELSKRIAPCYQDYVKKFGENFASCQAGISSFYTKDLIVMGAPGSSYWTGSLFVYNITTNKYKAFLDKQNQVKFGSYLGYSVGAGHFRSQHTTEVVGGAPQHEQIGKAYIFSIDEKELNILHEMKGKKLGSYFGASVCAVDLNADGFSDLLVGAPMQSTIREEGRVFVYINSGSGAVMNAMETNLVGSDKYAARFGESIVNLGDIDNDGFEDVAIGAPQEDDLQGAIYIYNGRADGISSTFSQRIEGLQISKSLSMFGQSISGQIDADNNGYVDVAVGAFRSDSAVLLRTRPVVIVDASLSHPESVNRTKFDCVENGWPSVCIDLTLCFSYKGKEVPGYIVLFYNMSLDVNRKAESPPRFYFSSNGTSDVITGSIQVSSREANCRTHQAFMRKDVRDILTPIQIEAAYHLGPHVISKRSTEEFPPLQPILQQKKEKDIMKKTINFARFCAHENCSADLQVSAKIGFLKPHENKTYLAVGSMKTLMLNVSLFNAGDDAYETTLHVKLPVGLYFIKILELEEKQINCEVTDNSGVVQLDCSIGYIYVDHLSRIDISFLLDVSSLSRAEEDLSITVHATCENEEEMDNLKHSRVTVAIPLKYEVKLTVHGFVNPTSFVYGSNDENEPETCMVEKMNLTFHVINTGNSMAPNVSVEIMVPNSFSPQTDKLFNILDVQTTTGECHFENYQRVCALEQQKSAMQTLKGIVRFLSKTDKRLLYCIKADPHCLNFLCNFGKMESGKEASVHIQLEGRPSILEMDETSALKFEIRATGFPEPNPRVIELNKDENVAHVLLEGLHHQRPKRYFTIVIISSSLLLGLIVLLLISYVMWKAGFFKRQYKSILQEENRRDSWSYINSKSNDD
T1 sequence (P05556 21-798): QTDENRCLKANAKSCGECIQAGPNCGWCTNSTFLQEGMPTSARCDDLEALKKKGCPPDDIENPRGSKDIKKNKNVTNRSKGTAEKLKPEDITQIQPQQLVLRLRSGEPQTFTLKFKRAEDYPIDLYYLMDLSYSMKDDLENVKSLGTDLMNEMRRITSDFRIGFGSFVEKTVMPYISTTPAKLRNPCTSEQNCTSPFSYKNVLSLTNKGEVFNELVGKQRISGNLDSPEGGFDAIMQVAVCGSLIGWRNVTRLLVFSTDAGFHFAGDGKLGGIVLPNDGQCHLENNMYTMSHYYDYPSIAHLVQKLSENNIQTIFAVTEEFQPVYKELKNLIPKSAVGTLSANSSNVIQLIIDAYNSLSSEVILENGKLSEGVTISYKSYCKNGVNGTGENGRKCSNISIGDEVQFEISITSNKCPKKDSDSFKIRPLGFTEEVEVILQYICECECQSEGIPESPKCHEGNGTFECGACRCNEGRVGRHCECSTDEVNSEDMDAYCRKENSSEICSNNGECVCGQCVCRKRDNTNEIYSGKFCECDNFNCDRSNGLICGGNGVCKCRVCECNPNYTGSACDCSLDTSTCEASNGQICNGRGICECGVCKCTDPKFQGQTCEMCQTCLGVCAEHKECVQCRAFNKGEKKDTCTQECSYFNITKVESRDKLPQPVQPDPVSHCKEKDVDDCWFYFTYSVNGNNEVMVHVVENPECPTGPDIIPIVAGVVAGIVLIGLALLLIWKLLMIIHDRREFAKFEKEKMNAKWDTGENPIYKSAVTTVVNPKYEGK
As to the kind of experiment: Inhibition of VLA-4-mediated adhesion of enzyme-labeled PM1 cells to VCAM-1-coated substrata. The class given is cell-based. The settings on record: PM1 cells on immobilized VCAM-1; listed as Z(−) enantiomer of ajoene. As for the experimental part: In addition, the invention discloses methods whereby the integrin-modulating activity of ajoene enantiomers may be assessed. One such method involves VLA-4-mediated adhesion of enzyme-labeled PM1 cells to VCAM-1-coated artificial substrata. Specifically, the cells were exposed to isolated ajoene enantiomers (or the vehicle thereof) and allowed to adhere to immobilized VCAM-1. Thereafter, the adherent cells were lyzed and, following addition of the substrate of the enzyme and incubation, the activity of the enzyme was measured spectrophotometrically. The value of this parameter, characterizing the number of the adherent cells, is inversely proportional to the integrin-modulating activity of the compound.
Integrin-modulating activity of the enantiomers was compared in a well-defined system of inhibition of VLA-4-mediated adhesion of enzyme-labeled PM1 cells (NIH AIDS Repository, Rockville, Md.) to VCAM-1-coated artificial substrata. In this experiment, enzyme-linked immunosorbent assay (ELISA) plates were coated with rabbit anti-human IgG (Fc-specific). Aliquots of 100 μL of supernatant from VCAM/IgG-secreting COS7 cells were added to each well, the plates incubated at 37° C. for 1 hour, and the wells washed with phosphate-buffered saline (PBS). […] The reaction was stopped with 0.5 M H2SO4, andthe optical density of the wells, read at 450 nm. […]

As to `C=CCSS/C=C/C[S+]([O-])CC=C` (racemic) [racemic E-ajoene, reference compound], in assay [1], the “IC100 of syncytium formation” value amounted to 50 micromoles per liter.

Turning to `C=CCSSC=CC[S+]([O-])CC=C` (racemic) [unseparated 3:1 mixture of racemic Z- and E-ajoenes, 4,5,9-trithiadodeca-1,6,11-triene-9-oxide, reference compound], the “IC100 of syncytium formation” value in assay [1] is 50 micromoles per liter.

As for `C=CCSS/C=C\C[S+]([O-])CC=C` (stereo not drawn) [Z(+)-ajoene, Z(+)-4,5,9-trithiadodeca-1,6,11-triene-9-oxide], in assay [1] (listed as Z(+)), the “IC100 of syncytium formation” value is reported as 50 micromoles per liter.

For the molecule `C=CCSS/C=C\C[S+]([O-])CC=C` (stereo not drawn) [Z(−)-ajoene, Z(−)-4,5,9-trithiadodeca-1,6,11-triene-9-oxide], in assay [2], the “adhesion-inhibiting activity relative to the other enantiomers / original 3:1 mixture” value came out at 4 fold. The “IC100 of syncytium formation” value in assay [1] and in assay [1] (listed as Z(−) enantiomer) was 12.5 micromoles per liter each time.
